Measured values: PMC9498203, “Characterization and Preliminary Application of a Novel Lipoxygenase from Enterovibrio norvegicus” (Foods, 2022)

Biological target: T1, EnLOX (Enterovibrio norvegicus, UniProt A0A1I5T4S6)
T1 construct: gene SAMN03084138_03074; E. coli BL21(DE3); Ni-NTA purified
T1 sequence (A0A1I5T4S6 1-726): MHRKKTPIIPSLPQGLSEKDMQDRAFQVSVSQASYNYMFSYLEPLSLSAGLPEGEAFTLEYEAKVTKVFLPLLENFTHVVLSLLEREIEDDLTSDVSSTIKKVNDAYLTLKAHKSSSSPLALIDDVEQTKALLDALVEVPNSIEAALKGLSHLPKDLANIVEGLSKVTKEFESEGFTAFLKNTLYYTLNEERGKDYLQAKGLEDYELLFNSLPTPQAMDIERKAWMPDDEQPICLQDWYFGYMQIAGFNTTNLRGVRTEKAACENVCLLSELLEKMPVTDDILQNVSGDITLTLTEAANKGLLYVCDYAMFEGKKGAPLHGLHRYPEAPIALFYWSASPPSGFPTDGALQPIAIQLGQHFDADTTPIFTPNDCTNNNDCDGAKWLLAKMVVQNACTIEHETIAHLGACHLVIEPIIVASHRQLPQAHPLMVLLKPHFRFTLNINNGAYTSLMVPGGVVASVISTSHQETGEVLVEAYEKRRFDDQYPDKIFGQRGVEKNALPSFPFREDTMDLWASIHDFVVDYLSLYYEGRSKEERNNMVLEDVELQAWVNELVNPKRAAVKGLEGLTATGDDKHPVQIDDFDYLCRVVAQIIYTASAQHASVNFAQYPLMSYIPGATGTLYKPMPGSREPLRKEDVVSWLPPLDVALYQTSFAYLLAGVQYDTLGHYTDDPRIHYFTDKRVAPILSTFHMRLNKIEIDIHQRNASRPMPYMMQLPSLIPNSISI
Test: absorbance at […] nm, Michaelis-Menten nonlinear fit
Type: biochemical
Settings: 20 mmol L^−1 Tris-HCl, pH 8.0, 50 °C

| SMILES | Km [µM] |
| --- | --- |
| CCCCC/C=C\C/C=C\C/C=C\CCCCC(=O)O [GLA, γ-linolenic acid] | 8.79 |
| CC/C=C\C/C=C\C/C=C\CCCCCCCC(=O)O [ALA, α-linolenic acid] | 2.32 |
